Data: publication PMC9597602, “Metal Complexes as Antifungals? From a Crowd-Sourced Compound Library to the First In Vivo Experiments” (JACS Au, 2022)
Entries after “also recorded” stand apart in the source; their conditions may differ. Where two headings read alike, the source gives them in different places.

Experiments:
[1] = system: Cryptococcus deuterogattii ATCC 32609 VGII; test: Antifungal MIC assay, extended panel; format: cell-based; settings: extended panel; 50% inhibition, MIC score 2
[2] = system: Candida auris CBS12373 KCTC 17810; test: Antifungal MIC assay, extended panel; format: cell-based; settings: extended panel; for MIC50 Candida auris CBS12373: 50% inhibition, MIC score 2
In short: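 Yeast was grown for 3 days at 30 °C on YPD agar. Five colonies were suspended to 1 × 10^6 to 5 × 10^6 CFU/mL, checked by OD530, diluted in YNB medium, and dispensed onto compound-loaded 384-well NBS plates at 2.5 × 10^3 CFU/mL in 50 μL. Plates were covered and incubated without shaking at 35 °C for 36 h to determine MIC.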

[3] = system: Candida auris CBS10913 JCM 15448; test: Antifungal MIC assay, extended panel; format: cell-based; settings: extended panel; for MIC: read-out: MIC* Candida auris CBS10913; for MIC50 Candida auris CBS10913: 50% inhibition, MIC score 2
In short: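 Yeast strains were grown on YPD agar at 30 °C for 3 days. Five colonies were suspended to 1 × 10^6 to 5 × 10^6 CFU/mL (by OD530), diluted in YNB medium, and dispensed into compound-containing 384-well NBS plates to 2.5 × 10^3 CFU/mL in 50 μL. Covered plates were held at 35 °C for 36 h without shaking, and MIC was determined by broth dilution.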

[4] = system: Cryptococcus deuterogattii CBS7750 VGII; Serotype B; test: Antifungal MIC assay, extended panel; format: cell-based; settings: extended panel, second batch; ≥80 or ≥50% inhibition
Description: (§1) For the fungal assays, both fungi (yeast) strains were cultured for 3 days on Yeast Extract-Peptone Dextrose (YPD; Becton Dickinson 242720) agar at 30 °C. A yeast suspension of 1 × 10^6 to 5 × 10^6 CFU/mL (as determined by OD530) was prepared from five colonies from the agar plates, subsequently diluted with Yeast Nitrogen Base media (YNB; Becton Dickinson 233520), and added to each well of the compound containing plates (384-well plates, NBS; Corning CLS3640), giving a final cell density of 2.5 × 10^3 CFU/mL and a total volume of 50 μL. Plates were covered and incubated at 35 °C for 36 h without shaking. […] MIC values were recorded as the lowest concentration at which the growth was inhibited by ≥80%, equivalent to ″optically clear-to-slightly hazy″ or MIC score of 0–1 as per CLSI guidelines M27 Reference Method for Broth Dilution Antifungal Susceptibility Testing of Yeasts. […] Fluconazole (Sigma F8929) was used as internal control on each plate for all strains. All compounds were tested as two technical replicates in two to four independent biological assays, n = 4–8 final data.

[5] = system: Candida glabrata ATCC 90030 NCCLS 84; test: Antifungal MIC assay, extended panel; format: cell-based; settings: extended panel, second batch; ≥80 or ≥50% inhibition
Description: as §1

[6] = system: Cryptococcus deuterogattii ATCC 32609 VGII; test: Antifungal MIC assay, extended panel; format: cell-based; settings: extended panel, second batch; ≥80 or ≥50% inhibition
Description: as §1

[7] = system: Candida tropicalis ATCC 750; test: Antifungal MIC assay, extended panel; format: cell-based; settings: extended panel, second batch; ≥80 or ≥50% inhibition
Description: as §1

[8] = system: Candida tropicalis ATCC 750; test: Antifungal MIC assay, extended panel; format: cell-based; settings: extended panel; 50% inhibition, MIC score 2
[9] = system: HEK-293 human embryonic kidney cells ATCC CRL-1573; settings: for HEK CC50: initial CO-ADD screening, 20 h; for CC50: read-out: HEK293 CC50, ranges obtained upon retesting, new batch
Description: The cells were incubated together with the compounds for 20 h at 37 °C in 5% CO2. […] Tamoxifen (Sigma T5648) was used as internal control on each plate.

[10] = system: Candida glabrata ATCC 90030 NCCLS 84; test: Antifungal MIC assay, extended panel; format: cell-based; settings: extended panel; 50% inhibition, MIC score 2
G. mellonella larvae = test: Galleria mellonella in vivo toxicity assay; settings: 10 μL of the highest concentration injected, monitored 6 days
Description: Based on criteria of overall antifungal activity, cytotoxicity, and hemolysis as well as compound availability, we selected compounds Co1, Ag2, Eu1, Ir1, Pt1, Pt2, Pt4, Pt5, Au1, Au2, and Au4 to conduct a preliminary in vivo toxicity assay. […] The compounds were dissolved in DMSO and diluted to the highest possible final concentration (Table 3). The larvae were then monitored for 6 days for survival and health using the G. mellonella Health Index Scoring System.[111] […] For the other compounds, no detrimental effects could be observed in the larvae over the monitoring period. […] Nevertheless, factors such as the metabolism, excretion, and/or accumulation of the various metal complexes and their metabolites will still need to be studied more rigorously in rodent models if they are to be advanced into the preclinical pipeline.
The toxicity of compounds was tested in vivo using the G. mellonella model using our previously described methods,[61] Briefly, G. mellonella larvae were reared in a controlled environmental room at Macquarie University, Sydney, Australia, at 30 °C and 65% humidity with a 12-h light/dark cycle. Larvae (200–250 mg) were individually injected with 10 μL of chemical into the last right pro-leg using a 100 μL syringe (Hamilton Ltd.). Each compound was dissolved in DMSO at the maximum concentration given in Table 3 and also diluted in water to final concentrations of 100, 10, and 1 μM. We injected five larvae in triplicate for each of the four dilutions for each compound. Larvae injected with different dilutions of DMSO (10^–1, 10^–2, and 10^–3) were included as negative controls. Following injection, the larvae were incubated at 30 °C and monitored every 24 h for 6 days. Larval performance was assessed according to the G. mellonella Health Index Scoring System.[111] The experiments were repeated over three separate days for biological triplicates.

[11] = system: Escherichia coli ATCC 25922 FDA control strain; test: CO-ADD antibacterial MIC assay; format: cell-based; settings: initial CO-ADD dose-response screening; ≥80% growth inhibition
In short: (§2)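 CAMHB broth microdilution; inoculum 5 × 10^5 CFU/mL from mid-log culture; 37 °C 18 h static; OD600 read-out; MIC at ≥80% inhibition; colistin (Gram-negative) and vancomycin (Gram-positive) internal controls.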

[12] = system: Pseudomonas aeruginosa ATCC 27853 QC control strain; test: CO-ADD antibacterial MIC assay; format: cell-based; settings: initial CO-ADD dose-response screening; ≥80% growth inhibition
In short: as §2

[13] = system: Acinetobacter baumannii ATCC 19606 type strain; test: CO-ADD antibacterial MIC assay; format: cell-based; settings: initial CO-ADD dose-response screening; ≥80% growth inhibition
In short: as §2

human red blood cells = format: cell-based
In short: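 Washed human erythrocytes at 0.5 × 10^8 cells/mL incubated with compound, then centrifuged. Haemolysis read as supernatant OD405, normalised to untreated cells (0%) and 1% Triton X-100 (100%), with melittin as internal plate control.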

[14] = system: Cryptococcus neoformans H99 ATCC 208821 type strain; test: Antifungal MIC assay; format: cell-based; settings: for MIC50 Cryptococcus neoformans ATCC 208821: 50% inhibition, MIC score 2
In short: (§3)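 MIC is the lowest concentration at which growth fell by at least 80% (optically clear to slightly hazy, CLSI M27 score 0–1). Cells in YNB at a final 2.5 × 10^3 CFU/mL were incubated with compound for 36 h at 35 °C, unshaken.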

[15] = system: Cryptococcus deuterogattii CBS7750 VGII; Serotype B; test: Antifungal MIC assay, extended panel; format: cell-based; settings: extended panel; 50% inhibition, MIC score 2
[16] = system: methicillin-resistant Staphylococcus aureus ATCC 43300; test: CO-ADD antibacterial MIC assay; format: cell-based; settings: initial CO-ADD dose-response screening; ≥80% growth inhibition
In short: as §2

[17] = system: Candida albicans ATCC 90028 NCCLS11; test: Antifungal MIC assay; format: cell-based; settings: for MIC Candida albicans ATCC 90028 / MIC50 Candida albicans ATCC 90028: extended panel; for MIC Candida albicans ATCC 90028: second batch, ≥80 or ≥50% inhibition; for MIC50 Candida albicans ATCC 90028: 50% inhibition, MIC score 2
In short: as §3

[18] = second batch, ≥80 or ≥50% inhibition
[19] = initial CO-ADD screening, 1 h, 10% hemolysis
[20] = ranges obtained upon retesting, new batch
[21] = extended panel, second batch, ≥80 or ≥50% inhibition
[22] = initial CO-ADD dose-response screening, ≥80% growth inhibition

SMILES	MIC50 Cryptococcus deuterogattii ATCC 32609 [1] [µM]	MIC50 Candida auris CBS12373 [2] [µM]	MIC [3, 18] [µM]	MIC50 Candida auris CBS10913 [3] [µM]	MIC [5] [µM]	MIC Cryptococcus deuterogattii ATCC 32609 [6] [µM]	MIC [7] [µM]	MIC50 Candida tropicalis ATCC 750 [8] [µM]	HEK CC50 [9] [µg/mL]	CC50 [9] [µM]	MIC50 Candida glabrata ATCC 90030 [10] [µM]	toxicity (G. mellonella larvae)	MIC Ec [11] [µg/mL]	MIC Pa [12] [µg/mL]	MIC Ab [13] [µg/mL]	RBC HC10 (human red blood cells; [19]) [µg/mL]	RBC HC10 (human red blood cells; [20]) [µM]	MIC Cryptococcus neoformans ATCC 208821 [14, 21] [µM]	MIC50 Cryptococcus neoformans ATCC 208821 ([14]; extended panel) [µM]	MIC50 Cryptococcus deuterogattii CBS7750 [15] [µM]	further results
c1ccc([PH]([Au][S]c2ccccn2)(c2ccccc2)c2ccccc2)cc1 [Au2]	0.049 to 0.195	0.098 to 0.195	0.195	0.098 to 1.56	>200	0.049 to 0.391	>200	≥ 200	>32	0.8 to 200	> 200	showed signs of toxicity; also recorded: toxic at 1 mM	>32	>32	>32	>32	> 200	0.024 to 0.195	0.024 to 0.195	0.049 to 1.56	MIC ([2]; second batch, ≥80 or ≥50% inhibition, read-out: MIC* Candida auris CBS12373): 0.195 µM; MIC [4]: 0.098 µM
Cc1c(C)c(-c2ccc(-c3ccccc3)cc2)[c-](C)c1C.Cc1ccccc1NC1=[NH+][Ir]([Cl])[NH]C(NS(=O)(=O)c2cccc3c(N(C)C)cccc23)=N1 [Ir3]	0.049 to 0.098	0.024 to 0.049	–	0.098	0.098	0.049 to 0.2	0.098	0.098	>32	54 to 76	0.098	–	>32	>32	>32	>32	3 to 41	–	0.024	0.024	MIC Candida auris CBS10913 [3, 18]: 0.024 to 0.098 µM; MIC Cryptococcus deuterogattii CBS7750 [4]: 0.024 to 0.049 µM; MIC MRSA (Sa) [16]: 0.5 µg/mL; MIC Candida albicans ATCC 90028 [17]: 0.024 to 0.098 µM; MIC50 Candida albicans ATCC 90028 [17]: 0.049 µM; MIC Ca [17, 22]: 2 µg/mL; MIC ([14]; extended panel, second batch, ≥80 or ≥50% inhibition, read-out: MIC* Cryptococcus neoformans ATCC 208821): 0.024 µM; MIC Cn [14, 22]: 1 µg/mL
c1cnc([S][Au][PH](c2ccco2)(c2ccco2)c2ccco2)nc1 [Au1]	0.024 to 0.049	0.098 to 0.391	0.098	0.098 to 0.195	–	0.098 to 0.391	–	0.049 to 0.391	>32	0.1 to 0.6	0.098 to 0.391	nontoxic	–	–	–	–	90 to 200	0.098 to 0.195	0.098 to 0.195	0.024 to 0.098	MIC Candida auris CBS12373 [2, 18]: 0.098 to 0.391 µM; MIC Cryptococcus deuterogattii CBS7750 [4]: 0.024 to 0.391 µM; MIC Candida glabrata ATCC 90030 [5]: 0.098 to 0.781 µM; MIC Candida tropicalis ATCC 750 [7]: 0.049 to 0.391 µM; MIC Candida albicans ATCC 90028 [17]: 0.049 to 0.391 µM; MIC50 Candida albicans ATCC 90028 [17]: 0.049 to 0.391 µM
